Results: patent US11945801B2, “Bicyclic aza compounds as muscarinic M1 and/or M4 receptor agonists” (Heptares Therapeutics Limited, priority 2018, dated 2024)
Like-named read-outs stand apart in the source and are kept apart here.

Assays:
[1] = target: T1, human muscarinic M1 receptor (Homo sapiens, UniProt P11229); assay: Alphascreen Surefire phospho-ERK1/2 functional assay, M1; type: cell-based; details: for EC50: agonist 5 min, 37° C.; for Emax: CHO
T1 sequence (P11229 1-460): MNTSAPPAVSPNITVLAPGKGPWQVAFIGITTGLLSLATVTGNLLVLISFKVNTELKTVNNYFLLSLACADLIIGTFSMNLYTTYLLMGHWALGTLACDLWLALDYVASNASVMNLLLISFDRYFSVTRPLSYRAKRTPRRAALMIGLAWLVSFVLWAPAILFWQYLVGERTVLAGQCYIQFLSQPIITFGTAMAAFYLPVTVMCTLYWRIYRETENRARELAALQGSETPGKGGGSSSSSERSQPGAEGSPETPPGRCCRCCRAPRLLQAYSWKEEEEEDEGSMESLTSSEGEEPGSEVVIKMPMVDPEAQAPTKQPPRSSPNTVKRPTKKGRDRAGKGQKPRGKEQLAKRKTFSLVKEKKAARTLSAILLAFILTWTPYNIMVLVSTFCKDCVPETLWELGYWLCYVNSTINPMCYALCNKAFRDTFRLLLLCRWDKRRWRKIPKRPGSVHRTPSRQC
Procedure: (§1) ERK1/2 phosphorylation is a downstream consequence of both Gq/11 and Gi/o protein coupled receptor activation, making it highly suitable for the assessment of M1, M3 (Gq/11 coupled) and M2, M4 receptors (Gi/o coupled), rather than using different assay formats for different receptor subtypes. CHO cells stably expressing the human muscarinic M1, M2, M3 or M4 receptor were plated (25K/well) onto 96-well tissue culture plates in MEM-alpha+10% dialysed FBS. Once adhered, cells were serum-starved overnight. Agonist stimulation was performed by the addition of 5 μL agonist to the cells for 5 min (37° C.). Media was removed and 50 μL of lysis buffer added. After […], a 4 μL sample was transferred to 384-well plate and 7 μL of detection mixture added.
(§2) Isomer assignment (Isomer 1, Isomer 2, etc.) is based on the retention time of the compound using the separation technique that was performed in the final purification step. By implication, this could be reversed phase HPLC, chiral HPLC or chiral SFC retention time, and this will vary from compound to compound.

[2] = target: T2, human muscarinic M4 receptor (Homo sapiens, UniProt P08173); assay: Alphascreen Surefire phospho-ERK1/2 functional assay, M4; type: cell-based; details: for EC50 / % Emax cf. ACh, M4: CHO cells stably expressing human M4; for EC50: agonist 5 min, 37° C., read-out: pEC50 M4 (converted); for Emax: CHO
T2 construct: expressed in transfected cells
T2 sequence (P08173 1-479): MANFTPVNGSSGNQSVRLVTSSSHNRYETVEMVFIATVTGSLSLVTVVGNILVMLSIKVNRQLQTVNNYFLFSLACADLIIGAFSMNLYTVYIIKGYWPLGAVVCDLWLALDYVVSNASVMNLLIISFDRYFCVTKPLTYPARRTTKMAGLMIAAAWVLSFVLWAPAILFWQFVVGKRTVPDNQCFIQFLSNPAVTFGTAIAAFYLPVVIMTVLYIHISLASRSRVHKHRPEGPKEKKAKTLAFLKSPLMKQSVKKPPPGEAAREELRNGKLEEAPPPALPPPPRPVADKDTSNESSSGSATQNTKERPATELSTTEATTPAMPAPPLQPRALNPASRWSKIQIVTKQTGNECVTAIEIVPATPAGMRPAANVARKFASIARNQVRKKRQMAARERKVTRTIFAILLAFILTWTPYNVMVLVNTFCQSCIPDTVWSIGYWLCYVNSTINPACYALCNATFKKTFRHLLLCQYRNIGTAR
Procedure: as §1, §2

[3] = CHO cells stably expressing human M1, read-out: pEC50 M1 (converted)
[4] = read-out: % Emax cf. ACh, M1, CHO cells stably expressing human M1, Emax relative to ACh
[5] = read-out: % Emax cf. ACh, M4, CHO cells stably expressing human M4, Emax relative to ACh

Row | SMILES | EC50 [1, 3] [nM] | Emax [1, 4] [%] | EC50 [2] [nM] | Emax [2, 5] [%] | Emax ([1]; read-out: % Emax cf. ACh, M1) [%] | EC50 ([1]; pEC50 M1, CHO cells stably expressing human M1) [nM] | Emax ([2]; read-out: % Emax cf. ACh, M4) [%] | % Emax cf. ACh, M1 ([1]; CHO cells stably expressing human M1, Emax relative to ACh, listed as 4-5 Isomer 2) [%] | % Emax cf. ACh, M4 ([2]; Emax relative to ACh, listed as 4-5 Isomer 2) [%] | % Emax cf. ACh, M1 ([1]; CHO cells stably expressing human M1, Emax relative to ACh, listed as 4-9 Isomer 2) [%] | % Emax cf. ACh, M4 ([2]; Emax relative to ACh, listed as 4-9 Isomer 2) [%]
1 | CCOC(=O)N1CC2(CC(N3CC(OC(=O)N(CC)CC)C3)C2)C1 [Example 4-1, Ethyl 6-(3-((diethylcarbamoyl)oxy)azetidin-1-yl)-2-azaspiro[3.3]heptane-2-carboxylate] | 832 | 83 | 1700 | 57 | – | – | – | – | – | – | –
2 | CCOC(=O)N1C2CCCC1CC(N1CC(OC(=O)N(CC)CC)C1)C2 (single isomer, unassigned) [Example 7-1 Isomer 1, Ethyl 3-(3-((diethylcarbamoyl)oxy)azetidin-1-yl)-9-azabicyclo[3.3.1]nonane-9-carboxylate] | – | – | 2290 | – | 88 | 1290 | 29 | – | – | – | –
3 | CCOC(=O)N1CCC2(CC(N3CC(OC(=O)N4CCCOCC4)C3)C2)C1 (single isomer, unassigned) [Example 4-3 Isomer 2, 1-(6-(Ethoxycarbonyl)-6-azaspiro[3.4]octan-2-yl)azetidin-3-yl 1,4-oxazepane-4-carboxylate] | 372 | 104 | 1020 | 46 | – | – | – | – | – | – | –
4 | CCOC(=O)N1CC2CCC1CC2N1CC(CC(=O)N2CCCOCC2)C1 (single isomer, unassigned) [Example 2-4 Isomer 1, Ethyl-5-(3-(2-(1,4-oxazepan-4-yl)-2-oxoethyl)azetidin-1-yl)-2-azabicyclo[2.2.2]octane-2-carboxylate] | 1020 | 58 | > 20000 | 9 | – | – | – | – | – | – | –
5 | CCOC(=O)N1CC2CCC1CC2N1CC(OC(=O)N2CCCC2)C1 (single isomer, unassigned) [Example 6-2 Isomer 1, Ethyl 5-(3-((pyrrolidine-1-carbonyl)oxy)azetidin-1-yl)-2-azabicyclo[2.2.2]octane-2-carboxylate] | 6920 | 83 | 646 | 55 | – | – | – | – | – | – | –
6 | CCOC(=O)N1CC2(CCC(N3CC(OC(=O)N(CC)CC)C3)C2)C1 (single isomer, unassigned) [Example 4-5 Isomer 2, Ethyl 6-(3-((diethylcarbamoyl)oxy)azetidin-1-yl)-2-azaspiro[3.4]octane-2-carboxylate] | 1120 | – | > 20000 | – | – | – | – | 44 | 10 | – | –
7 | CCOC(=O)N1CC2CCC1CC2N1CC(OC(=O)N(CC)CC)C1 (single isomer, unassigned) [Example 6-1 Isomer 1, Ethyl 5-(3-((diethylcarbamoyl)oxy)azetidin-1-yl)-2-azabicyclo[2.2.2]octane-2-carboxylate] | 1050 | 65 | > 20000 | 9 | – | – | – | – | – | – | –
8 | CCOC(=O)N1C2CCC1CC(N1CC(CC(=O)N(CC)C(C)C)C1)C2 (mixture of isomers) [Example 1-2 Isomer mixture, Ethyl-3-(3-(2-(ethyl(isopropyl)amino)-2-oxoethyl)azetidin-1-yl)-8-azabicyclo[3.2.1]octane-8-carboxylate] | 182 | – | > 20000 | – | 100 | – | 7 | – | – | – | –
9 | CCOC(=O)N1CC2CCC1CC2N1CC(OC(=O)N2CCCOCC2)C1 (single isomer, unassigned) [Example 6-5 Isomer 1, 1-(2-(Ethoxycarbonyl)-2-azabicyclo[2.2.2]octan-5-yl)azetidin-3-yl 1,4-oxazepane-4-carboxylate] | 813 | 58 | > 20000 | 27 | – | – | – | – | – | – | –
10 | CCOC(=O)N1C2CCCC1CC(N1CC(CC(=O)N3CCCC3)C1)C2 (single isomer, unassigned) [Example 3-2 Isomer 1, Ethyl-3-(3-(2-oxo-2-(pyrrolidin-1-yl)ethyl)azetidin-1-yl)-9-azabicyclo[3.3.1]nonane-9-carboxylate] | 4790 | – | 933 | – | 68 | – | 68 | – | – | – | –
11 | CCOC(=O)N1CC2(CCC(N3CC(OC(=O)N4CCCOCC4)C3)C2)C1 (single isomer, unassigned) [Example 4-9 Isomer 2, 1-(2-(Ethoxycarbonyl)-2-azaspiro[3.4]octan-6-yl)azetidin-3-yl 1,4-oxazepane-4-carboxylate] | 5620 | – | 389 | – | – | – | – | – | – | 84 | 85
12 | CCOC(=O)N1C2CCC1CC(N1CC(OC(=O)N3CCCOCC3)C1)C2 (mixture of isomers) [Example 5-2 Isomer mixture, 1-(8-(Ethoxycarbonyl)-8-azabicyclo[3.2.1]octan-3-yl)azetidin-3-yl 1,4-oxazepane-4-carboxylate] | 2240 | – | > 20000 | – | 92 | – | 19 | – | – | – | –
13 | CCOC(=O)N1C2COCC1CC(N1CC(OC(=O)N3CCCCCC3)C1)C2 (single isomer, unassigned) [Example 8-1 Isomer 1, Ethyl 7-(3-((azepane-1-carbonyl)oxy)azetidin-1-yl)-3-oxa-9-azabicyclo[3.3.1]nonane-9-carboxylate] | 257 | – | 1860 | – | 104 | – | 43 | – | – | – | –
14 | CCOC(=O)N1CC2CCC1CC2N1CC(OC(=O)N2CCCCC2)C1 (single isomer, unassigned) [Example 6-3 Isomer 1, Ethyl 5-(3-((piperidine-1-carbonyl)oxy)azetidin-1-yl)-2-azabicyclo[2.2.2]octane-2-carboxylate] | 355 | 92 | 1620 | 35 | – | – | – | – | – | – | –
15 | CCOC(=O)N1C2CCCC1CC(N1CC(CC(=O)N(CC)CC)C1)C2 (single isomer, unassigned) [Example 3-1 Isomer 1, Ethyl-3-(3-(2-(diethylamino)-2-oxoethyl)azetidin-1-yl)-9-azabicyclo[3.3.1]nonane-9-carboxylate] | 813 | – | > 20000 | – | 106 | – | 23 | – | – | – | –
16 | CCN(CC)C(=O)OC1CN(C2CCC3(C2)CN(C(=O)OC)C3)C1 (single isomer, unassigned) [Example 4-6 Isomer 1, Methyl 6-(3-((diethylcarbamoyl)oxy)azetidin-1-yl)-2-azaspiro[3.4]octane-2-carboxylate] | 631 | 92 | 1120 | 33 | – | – | – | – | – | – | –
17 | CCOC(=O)N1C2CCC1CC(N1CC(CC(=O)N3CCC34CCC4)C1)C2 (single isomer, unassigned) [Example 1-3 Isomer 2, Ethyl-3-(3-(2-oxo-2-(1-azaspiro[3.3]heptan-1-yl)ethyl)azetidin-1-yl)-8-azabicyclo[3.2.1]octane-8-carboxylate] | 115 | – | > 20000 | – | 103 | – | 19 | – | – | – | –
